We go through two molecules from patent publication US9051306B2, “Indirubin derivative having highly selective cytotoxicity for malignant tumors” (NIHON UNIVERSITY, priority 2011, dated 2015).

Series [1] relates to human neuroblastoma cells IMR-32. As to the kind of experiment: Antitumor activity, MTT method, IMR-32. It counts as cell-based. Here is the method: (§1) Antitumor activity was determined by the MTT (3-(4,5-dimethylthiazol-2-yl)-2,5-diphenyltetrazolium bromide) method.
(§2) One hundred μL of a suspension of tumor cells in an RPMI 1640 medium was seeded into a 96-well plate (1×10^4 cells/well) and cultured for 24 hours (5% CO2, 37° C., saturated humidity conditions). Subsequently, the test compound (final concentration of from 1×10^−5 to 1×10^−8 M) and DMSO as a control were each added in an amount of 0.2 μL and allowed to act on the tumor cells for 48 hours. Subsequently, 10 μL of a 0.5% MTT solution was added. After 3 hours, 100 μL of a reaction terminating solution (0.04 N HCl/isopropanol) was added to terminate the reaction. After thorough pipetting, the absorbance was measured at 570 nm (top) and 655 nm (bottom) using a microplate reader. The cell survival rate for each sample at each concentration was calculated as a percentage to the control group, and IC50 values were determined from the data. The tumor cells used were human neuroblastoma cells IMR-32, SK-N-SH, LA-N-1, and NB-39 and human liver cancer cells HepG-2. Non-tumor cells: normal human dermal fibroblasts (NHDF) and human umbilical vein endothelial cells (HUVEC) were also used.
(Tetrazolium assays rely on reduction of a dye to a coloured formazan, in cell work by metabolically active cells.)

Series [2] has as its system human neuroblastoma cells SK-N-SH. Description: Antitumor activity, MTT method, SK-N-SH. It is filed as cell-based. Here is the method: as §1, §2
Series [3] relates to human neuroblastoma cells NB-39. Description: Antitumor activity, MTT method, NB-39. It counts as cell-based. Here is the method:
as §1, §2

In series [4] the test system is human neuroblastoma cells LA-N-1. As to the kind of experiment: Antitumor activity, MTT method, LA-N-1. It is filed as cell-based. As to the method: as §1, §2
The subject of series [5] is human liver cancer cells HepG-2. As to the kind of experiment: Antitumor activity, MTT method, HepG-2. It counts as cell-based. As to the method: as §1, §2
Series [6] relates to normal human dermal fibroblasts (NHDF). Description: Cytotoxicity, MTT method, NHDF non-tumor cells. It counts as cell-based. Here is the method: as §1, §2
The subject of series [7] is human umbilical vein endothelial cells (HUVEC). Description: Cytotoxicity, MTT method, HUVEC non-tumor cells. It counts as cell-based. Here is the method: as §1, §2
In series [8] the test system is human liver cancer cell line HepG2. Description: Antitumor activity (2), Alamar Blue cell survival. It is filed as cell-based. The conditions noted are these: 24 hours, read-out: cytotoxic activity (IC50: 50% inhibitory concentration). As to the method:
Fetal bovine serum (FBS) was added at a final concentration of 10% to dulbecco's modified eagle's medium (DMEM, Sigma-Aldrich), and a penicillin-streptomycin solution (GIBCO) was further added at a concentration of 0.1 mg/mL.
An Alamar Blue solution manufactured by Wako Pure Chemical Industries, Ltd. was used.
One hundred μL aliquot of a suspension of human liver cancer cell line HepG2 cells in DMEM medium (1.0×10^5 cells/mL) was dispensed into a 96-well culture plate. The cells were allowed to adhere to the plate by being cultured at 37° C. in 5% CO2 under saturated humidity conditions. After culture for 24 hours, the medium was removed by suction, and 100 μL of a test compound-containing medium (containing 1% DMSO) was added. The cells were cultured at 37° C. in 5% CO2 under saturated humidity conditions. After culture for 24 hours, the medium was removed by suction, and the cells were washed with phosphate buffered saline (PBS). The Alamar Blue reagent solution (100 μL) diluted 10 times with the medium was added to each well, and the cells were cultured under the same conditions. After 1 hour, the fluorescence intensity was measured at an excitation wavelength of 577 nm and a detection wavelength of 612 nm. When the cell survival rate was calculated, the value for the well added with the vehicle (containing 1% DMSO) was normalized as 100%.

The test system of a further series is IMR-32 cells. As to the kind of experiment: Ability to induce apoptosis, Hoechst 33342 staining method. It is filed as cell-based, human. As to the method: The ability to induce apoptosis was examined using nuclear staining by the Hoechst 33342 staining method.
Two mL of a suspension of cells (IMR-32) in an RPMI 1640 medium was seeded into a 6-well plate (1×10^5 cells/well) and cultured for 24 hours (under 5% CO2, 37° C., and saturated humidity conditions). Subsequently, the test compound (final concentration of from 1×10^−5 M to 1×10^−7 M) and DMSO as a control were each added in an amount of 4 μL and allowed to act on the cells for 24 hours. Subsequently, 100 μL of a 0.02% Hoechst 33342 solution was added. After 15 minutes, phase-contrast images and fluorescence images of the cells were taken with a fluorescence microscope to observe changes in cell morphology.

The subject of series [9] is human neuroblastoma IMR-32 cells. Description: Ability to induce apoptosis, flow cytometry (Annexin V-FITC/PI). The following applies: 24 hours. It is filed as cell-based. As to the method:
Flow cytometry was used to detect whether the compound (HS-2) of the present invention had the ability to induce apoptosis of human neuroblastoma IMR-32 cells. Specifically, 2 mL of a suspension of cells (IMR-32) in an RPMI 1640 medium was seeded into a 6-well plate (1×10^6 cells/well) and cultured for 24 hours (under 5% CO2, 37° C., and saturated humidity conditions). Subsequently, the compound (HS-2) was added at a final concentration of from 1×10^−5 M to 1×10^−7 M and incubated under 37° C. and 5% CO2 conditions for 24 hours. The cells were detached with trypsin and washed with PBS. Annexin V-FITC and propidium iodide (PI) were then added to the cells to carry out flow cytometry. In this technique, only Annexin V-FITC fluorescence is observed from cells in the early apoptosis phase, and both Annexin V fluorescence and PI fluorescence are observed from cells in the late apoptosis phase.

Another series has as its system tumor cells. Description: Antitumor activity, MTT method, overall statement on tumor cells. It is filed as cell-based, human. The following applies: from FIG. 1 and Table 1. Here is the method:
as §1, §2

Structures are written as SMILES. “Also recorded” adds a separate entry of the source. Where two headings read alike, the source gives them in different places. A value given as a limit tells only on which side of the number the result lay.

In the case of `[NH2][Pt]([NH2])([Cl])[Cl]` [CDDP, cisplatin, reference compound], the IC50 in [1] (IMR-32, MTT, 48 hours, read-out: IC50) is 28200 nM; in [2] (MTT, 48 hours, read-out: IC50) it was 12100 nM; in series [3] (NB-39, MTT, 48 hours, read-out: IC50), 2040 nM; in series [4] (LA-N-1, MTT, 48 hours, read-out: IC50), 1630 nM; in [5] (HepG-2, Table 1, read-out: IC50) it was 10000 nM; in series [6] (NHDF normal cells, MTT, 48 hours, read-out: IC50), above 100000 nM. Also, the IC50 amounted to 69800 nM in series [7] (HUVEC normal cells, MTT, 48 hours, read-out: IC50) and 10000 nM in series [8].
For the molecule `O=C1Nc2ccccc2/C1=C1/Nc2ccccc2/C1=N\OCC1CO1` (stereo not drawn) [HS-2, indirubin-3′-(O-oxiran-2-ylmethyl)oxime], the IC50 in series [1] (Homo sapiens, IMR-32, 48 h) was found to be 329 nM; in series [2] (Homo sapiens, 48 h) it was 325 nM; in [3] (Homo sapiens, NB39, 48 h) it was 550 nM; in [4] (Homo sapiens, LAN1, 48 h), 139 nM; in series [5] (Homo sapiens, HepG2) it was 1000 nM; in [6] (Homo sapiens, NHDF, 48 h), 61400 nM. Also, the IC50 in series [7] (Homo sapiens, HUVEC, 48 h) stood at 1750 nM; in series [8] (Homo sapiens) it was 1000 nM. Moreover, the “apoptosis of IMR-32 neuroblastoma cells” value in the series with IMR-32 cells (FIG. 2 legend) is “induced apoptosis”. Also, the “nuclear morphology (Hoechst 33342 staining)” value in the series with IMR-32 cells (IMR-32, 0.1 μM, 24 hours, FIG. 2) is “induced nuclear aggregation and fragmentation”. In addition, the apoptosis-inducing effect entry in series [9] (IMR-32, 10 μM) was “significant apoptosis-inducing effect”. For the same molecule, in series [9] (IMR-32, 1×10^−5 M to 1×10^−7 M, FIG. 3), the “ability to induce apoptosis” value is on record as “induced apoptosis; also recorded: concentration-dependent ability to induce apoptosis”. Moreover, the “antitumor activity relative to cisplatin (CDDP)” value in the series with tumor cells was in the range of 50 to 100 times.
